Test results from patent US7595300B2, “7-quinolyl ketolide antibacterial agents” (priority 2005, dated 2009).
Values after ≈ are worked out from the molar mass of the structure shown. Like-named read-outs stand apart in the source and are kept apart here. Blank lines part the entries; values can stand above or below the compound they belong to.

Legend:
anesthetized rats = experiment: Cardiovascular safety, QT interval in anesthetized rats, i.v. bolus; format: in vivo, rat; settings: anesthetized rat, incremental i.v. bolus doses 0.47 to 15 mg/kg
Protocol: (§1) Total doses of drug (0.47, 0.94, 1.88, 3.75, 7.5, and 15 mg/kg) or equivalent volumes of vehicle were administered incrementally as an i.v. bolus to groups of 6 anesthetized rats or guinea pigs at 0, 15, 30, 45, 60, and 75 minutes. Hemodynamic parameters including mean arterial pressure (MAP) and heart rate (HR), and ECG parameters (QT and PR intervals and QRS duration) were recorded. For the rat, injection of vehicle gave a 16% increase in QT interval over baseline. For the guinea pig, injection of vehicle gave a 3% increase in QT interval over baseline.

anesthetized guinea pigs = experiment: Cardiovascular safety, QTc interval in anesthetized guinea pigs, i.v. bolus; format: in vivo, guinea pig; settings: for QTc prolongation (% above vehicle): anesthetized guinea pig, incremental i.v. bolus doses 0.47 to 15 mg/kg; for effect on the QTc interval in the anesthetized guinea pig: cumulative doses up to 30 mg/kg, relative to vehicle controls
Protocol: as §1

[1] = Pharmacokinetics in the mouse, plasma and lung tissue; format: in vivo; settings: oral gavage 10 mg/kg; for Lung AUC / Lung Cmax: mouse lung tissue; for Plasma AUC / Plasma Cmax: mouse plasma
Protocol: The pharmacokinetics of compounds of formula (VIII) and compounds of formula (II) and (III) were measured in the mouse. Compounds were administered either intravenously (i.v.) at 1 mg/kg, or per oral gavage (p.o.) at 10 mg/kg. Plasma samples were taken and analyzed by LC/MS-MS. For lung tissue pharmacokinetics, lungs were removed and homogenized, followed by analyzis by LC/MS-MS.

P. acnes = experiment: MIC, NCCLS Reference Agar Dilution Method for anaerobic bacteria; format: cell-based, Propionibacterium acnes
Protocol: (§2) Minimum inhibitory concentrations (“MICs”) were determined by the NCCLS Reference Agar Dilution Method (M11-A5, Vol. 21, No. 2) for anaerobic bacteria. A panel of 84 antibiotic-susceptible and resistant strains of Propionibacteria from distinct geographic locations were selected. Following revival from frozen stocks, each strain was purity plated onto Wilkins Chalgren Agar, pH 7.2 (Oxoid, UK), and the appropriate antibiotic resistance/susceptibility phenotype was confirmed by antibiotic disc testing. Each strain was subjected to an agar dilution MIC assay. […] The inocula for each batch of strains were prepared from 7-day old Wilkins Chalgren Agar plate cultures by resuspension of colonies in Wilkins Chalgren Anaerobe broth, pH 7.2 (Oxoid, UK) to an optical density (OD600) of 0.2±0.02. The inoculum (1.0-2.0 μL) for each strain was applied to a Wilkins Chalgren Agar MIC plate in a grid pattern using a Multipoint Inoculator (Denley, UK). All agar plates were incubated at 37° C. for 3 days under anaerobic conditions in AnaeroPack 7 liter rectangular jars (Mitsubishi Gas Chemical Company, Inc., Japan).

P. granulosum = experiment: as above; format: cell-based, Propionibacterium granulosum
Protocol: as §2

Haemophilus influenzae = experiment: MIC, NCCLS broth microdilution, respiratory pathogens; format: cell-based; settings: H. influenzae
Protocol: (§3) Minimum inhibitory concentrations (“MICs”) were determined by the NCCLS broth microdilution procedure for susceptibility testing for bacteria that grow aerobically (National Committee for Clinical Laboratory Standards, 1997. Methods for dilution antimicrobial susceptibility tests for bacteria that grow aerobically, 4th ed. Approved standard. NCCLS Document M7-A4. National Committee for Clinical Laboratory Standards, Villanova, Pa.). Stock solutions were prepared on the day of the test and appropriate aliquots were added to cation adjusted Mueller-Hinton broth (CAMHB, DIFCO) or Haemophilus test media. Two-fold serial dilutions were prepared and added to wells in microtiter plates. Final test concentrations ranged from 8 to 0.004 ug/ml. Broth cultures of bacteria inoculated from growth on overnight plates for all test bacteria except Streptococcus pneumoniae and Haemophilus influenzae were incubated at 35° C. and then adjusted to the Kirby Bauer standard and diluted in CAMHB to achieve a final inoculum concentration of approximately 5×10^5 CFU/ml. Inocula for S. pneumoniae and H. influenzae were prepared by directly suspending colonies from an overnight plate, adjusting the turbidity and diluting as above. S. pneumoniae media was supplemented with 3% lysed horse blood. All plates were incubated in ambient air at 35° C. for 20-24 h for S. pneumoniae and Haemophilus influenzae and 16-20 h for all other bacteria.

M. catarrhalis = experiment: as above; format: cell-based; settings: Moraxella catarrhalis, M. catarrhalis
Protocol: as §3

S. pyogenes = experiment: as above; format: cell-based; settings: Streptococcus pyogenes; for MIC50: read-out: MIC50; for MIC90: read-out: MIC90
Protocol: as §3

Streptococcus pneumoniae = experiment: as above; format: cell-based; settings: S. pneumoniae; for MIC50: read-out: MIC50; for MIC90: read-out: MIC90
Protocol: as §3

[2] = marker RNA 2057, phenotype EryR
[3] = marker RNA 2058, phenotype EryR
[4] = marker RNA 2059, phenotype EryR

Lung AUC [1]: 2.3 ug/mL-h
Lung Cmax [1]: 800 ng/mL
Plasma AUC [1]: 0.7 ug/mL-h
Plasma Cmax [1]: 400 ng/mL
Structure (SMILES): CC1CC(N(C)C)C(O)C(O[C@@H]2[C@@H](C)C(=O)[C@@H](C)C(=O)O[C@H](CCF)[C@@]3(C)OC(=O)N[C@@H]3[C@@H](C)C(=O)[C@H](C)C[C@@]2(C)OC/C=C/c2cnc3ccccc3c2)O1 (stereo partly shown) [A]
QT prolongation (% above vehicle) (anesthetized rats): 8 % above vehicle
QTc prolongation (% above vehicle) (anesthetized guinea pigs): 10 % above vehicle
effect on the QTc interval in the anesthetized guinea pig (anesthetized guinea pigs): pronounced, dose-dependent prolongation of the QT interval

Structure (SMILES): CCC[C@@H]1C[C@@H](C(=O)N[C@@H]([C@H]2O[C@H](SC)[C@H](O)[C@@H](O)[C@H]2O)[C@H](C)Cl)N(C)C1 [clindamycin]
MIC range (P. acnes; marker RNA 1058, phenotype TetR): 0.25 to 256 µg/mL
MIC range (P. acnes; marker RNA 1058/2058, phenotype TetR, EryR): 256 µg/mL (≈ 602 µM)
MIC range (P. acnes; marker RNA 1058/2059, phenotype TetR, EryR): 8 to 16 µg/mL
MIC range (P. acnes; [2]): 1 µg/mL (≈ 2.35 µM)
MIC range (P. acnes; [3]): 8 to 256 µg/mL
MIC range (P. acnes; marker RNA 2058, phenotype EryR, TetR): 2 to 256 µg/mL
MIC range (P. acnes; [4]): 8 to 256 µg/mL
MIC range (P. acnes; marker RNA 2059, phenotype EryR, TetR): 8 to 32 µg/mL
MIC range (P. acnes; marker ermX, phenotype EryR): >512 µg/mL
MIC range (P. acnes; marker none, phenotype none): 0.125 to 1 µg/mL
MIC range (P. acnes; marker unknown, phenotype ClindR): 4 µg/mL (≈ 9.41 µM)
MIC range (P. granulosum; [3]): 512 µg/mL (≈ 1200 µM)
MIC range (P. granulosum; [4]): 2 to 512 µg/mL
MIC range (P. granulosum; marker ermX, phenotype EryR): 512 µg/mL (≈ 1200 µM)
MIC range (P. granulosum; marker none, phenotype none): 0.06 to 0.25 µg/mL

Structure (SMILES): CC1CC(N(C)C)C(O)C(O[C@@H]2[C@@H](C)C(=O)[C@@H](C)C(=O)O[C@H](CCF)[C@@]3(C)OC(=O)N[C@@H]3[C@@H](C)C(=O)[C@H](C)C[C@@]2(C)OC/C=C/c2ccc3ncccc3c2)O1 (stereo partly shown) [C]
QT prolongation (% above vehicle) (anesthetized rats): 20 % above vehicle
QTc prolongation (% above vehicle) (anesthetized guinea pigs): 12 % above vehicle
effect on the QTc interval in the anesthetized guinea pig (anesthetized guinea pigs): pronounced, dose-dependent prolongation of the QT interval

Lung AUC [1]: 2.2 ug/mL-h
Lung Cmax [1]: 450 ng/mL
Plasma AUC [1]: 0.54 ug/mL-h
Plasma Cmax [1]: 210 ng/mL
Structure (SMILES): CC1CC(N(C)C)C(O)C(O[C@@H]2[C@@H](C)C(=O)[C@@H](C)C(=O)O[C@H](CCF)[C@@]3(C)OC(=O)N[C@@H]3[C@@H](C)C(=O)[C@H](C)C[C@@]2(C)OC/C=C/c2ccc3nccnc3c2)O1 (stereo partly shown) [G]
QT prolongation (% above vehicle) (anesthetized rats): 12 % above vehicle
QTc prolongation (% above vehicle) (anesthetized guinea pigs): 1 % above vehicle
effect on the QTc interval in the anesthetized guinea pig (anesthetized guinea pigs): moderate, dose-dependent increase in the QTc interval that slowly returned to baseline

Lung AUC [1]: 19.0 ug/mL-h
Lung Cmax [1]: 3300 ng/mL
Plasma AUC [1]: 3.9 ug/mL-h
Plasma Cmax [1]: 1000 ng/mL
Structure (SMILES): CC1CC(N(C)C)C(O)C(O[C@@H]2[C@@H](C)C(=O)[C@](C)(F)C(=O)O[C@H](CCF)[C@@]3(C)OC(=O)N[C@@H]3[C@@H](C)C(=O)[C@H](C)C[C@@]2(C)OC/C=C/c2cnc3ccccc3c2)O1 (stereo partly shown) [B]
QT prolongation (% above vehicle) (anesthetized rats): 10 % above vehicle
QTc prolongation (% above vehicle) (anesthetized guinea pigs): 3 % above vehicle
effect on the QTc interval in the anesthetized guinea pig (anesthetized guinea pigs): smaller yet persistent increase in QTc at the highest dose

Structure (SMILES): CC[C@H]1OC(=O)[C@H](C)[C@@H](O[C@H]2C[C@@](C)(OC)[C@@H](O)[C@H](C)O2)[C@H](C)[C@@H](O[C@@H]2O[C@H](C)C[C@H](N(C)C)[C@H]2O)[C@](C)(O)C[C@@H](C)C(=O)[C@H](C)[C@@H](O)[C@]1(C)O [erythromycin]
MIC range (P. acnes; [2]): 4 µg/mL (≈ 5.45 µM)
MIC range (P. granulosum; marker none, phenotype none): 0.06 to 8 µg/mL

MIC50 (Haemophilus influenzae; resistant): > 8 µg/mL
MIC90 (Haemophilus influenzae; resistant): > 8 µg/mL
MIC50 (Haemophilus influenzae; sensitive): 8 µg/mL (≈ 10.7 µM)
MIC90 (Haemophilus influenzae; sensitive): 8 µg/mL (≈ 10.7 µM)
MIC50 (M. catarrhalis; read-out: MIC50): 0.12 µg/mL (≈ 0.16 µM)
MIC90 (M. catarrhalis; read-out: MIC90): 0.12 µg/mL (≈ 0.16 µM)
MIC50 (S. pyogenes; genotype ermB): > 8 µg/mL
MIC90 (S. pyogenes; genotype ermB): > 8 µg/mL
MIC50 (S. pyogenes; genotype mef): 8 µg/mL (≈ 10.7 µM)
MIC90 (S. pyogenes; genotype mef): > 8 µg/mL
MIC50 (S. pyogenes; genotype sensitive): 0.06 µg/mL (≈ 0.0802 µM)
MIC90 (S. pyogenes; genotype sensitive): 0.06 µg/mL (≈ 0.0802 µM)
MIC50 (Streptococcus pneumoniae; 20 h, genotype ermB + mef): > 8 µg/mL
MIC90 (Streptococcus pneumoniae; genotype ermB + mef): > 8 µg/mL
MIC50 (Streptococcus pneumoniae; genotype ermB): > 8 µg/mL
MIC90 (Streptococcus pneumoniae; genotype ermB): > 8 µg/mL
MIC50 (Streptococcus pneumoniae; genotype mef): 4 µg/mL (≈ 5.35 µM)
MIC90 (Streptococcus pneumoniae; genotype mef): 8 µg/mL (≈ 10.7 µM)
MIC50 (Streptococcus pneumoniae; genotype sensitive): 0.06 µg/mL (≈ 0.0802 µM)
MIC90 (Streptococcus pneumoniae; genotype sensitive): 0.06 µg/mL (≈ 0.0802 µM)
Structure (SMILES): CC[C@H]1OC(=O)[C@H](C)[C@@H](O[C@H]2C[C@@](C)(OC)[C@@H](O)[C@H](C)O2)[C@H](C)[C@@H](O[C@@H]2O[C@H](C)C[C@H](N(C)C)[C@H]2O)[C@](C)(OC)C[C@@H](C)C(=O)[C@H](C)[C@@H](O)[C@]1(C)O [clarithromycin, reference compound]

Structure (SMILES): CC1CC(N(C)C)C(O)C(O[C@@H]2[C@@H](C)C(=O)[C@@H](C)C(=O)O[C@H](CCF)[C@@]3(C)OC(=O)N[C@@H]3[C@@H](C)C(=O)[C@H](C)C[C@@]2(C)OC/C=C/c2cnc3cccnc3c2)O1 (stereo partly shown) [D]
QT prolongation (% above vehicle) (anesthetized rats): 28 % above vehicle
QTc prolongation (% above vehicle) (anesthetized guinea pigs): 14 % above vehicle
effect on the QTc interval in the anesthetized guinea pig (anesthetized guinea pigs): pronounced, dose-dependent prolongation of the QT interval
